Results reported in the NIST ThermoML archive (doi:10.1016/j.fluid.2018.04.007).

Columns and labels:
[1] = refractive index (Na D-line) (dimensionless); xn = mol fraction of the nth substance listed; conditions: 101 kPa, Liquid, Standard Abbe refractometry
[2] = relative permittivity at various frequencies (dimensionless); xn = mol fraction of the nth substance listed; conditions: 101 kPa, Liquid, Frequency=1 MHz, Parallel plate capacitor

CCCCCCN [1-hexanamine] + CO
Conditions | refractive index, 293.15 K | refractive index, 298.15 K | refractive index, 303.15 K | relative permittivity, 293.15 K | relative permittivity, 298.15 K
[1], x2 = 0 | 1.41808 | 1.41563 | 1.41321 | – | –
[1], x2 = 0.0534 | 1.41741 | 1.41499 | 1.41261 | – | –
[1], x2 = 0.0942 | 1.41681 | 1.41442 | 1.41204 | – | –
[1], x2 = 0.1871 | 1.41513 | 1.41282 | 1.4104 | – | –
[1], x2 = 0.2977 | 1.4125 | 1.41017 | 1.40773 | – | –
[1], x2 = 0.4039 | 1.40889 | 1.40657 | 1.40412 | – | –
[1], x2 = 0.4917 | 1.4048 | 1.40243 | 1.4 | – | –
[1], x2 = 0.5977 | 1.3979 | 1.3955 | 1.39316 | – | –
[1], x2 = 0.6997 | 1.38836 | 1.38615 | 1.38372 | – | –
[1], x2 = 0.7995 | 1.37505 | 1.37296 | 1.37067 | – | –
[1], x2 = 0.8475 | 1.36685 | 1.36479 | 1.36257 | – | –
[1], x2 = 0.8978 | 1.35657 | 1.3546 | 1.3524 | – | –
[1], x2 = 0.9496 | 1.34385 | 1.34182 | 1.33968 | – | –
[1], x2 = 0.9834 | 1.33399 | 1.33194 | 1.3298 | – | –
[2], x2 = 0 | – | – | – | 3.964 | 3.904
[2], x2 = 0.0534 | – | – | – | 4.367 | 4.293
[2], x2 = 0.122 | – | – | – | 4.964 | 4.87
[2], x2 = 0.1906 | – | – | – | 5.681 | 5.564
[2], x2 = 0.3081 | – | – | – | 7.244 | 7.085
[2], x2 = 0.395 | – | – | – | 8.783 | 8.557
[2], x2 = 0.4982 | – | – | – | 11.109 | 10.806
[2], x2 = 0.6035 | – | – | – | 14.21 | 13.794
[2], x2 = 0.7016 | – | – | – | 17.646 | 17.127
[2], x2 = 0.8002 | – | – | – | 21.864 | 21.254
[2], x2 = 0.8485 | – | – | – | 24.251 | 23.597
[2], x2 = 0.8984 | – | – | – | 26.928 | 26.203
[2], x2 = 0.9496 | – | – | – | 30.037 | 29.216
[2], x2 = 0.9834 | – | – | – | 32.343 | 31.44

CCCCCCN [1-hexanamine] + CCCCCCCO
Conditions | refractive index, 293.15 K | refractive index, 298.15 K | refractive index, 303.15 K | relative permittivity, 293.15 K | relative permittivity, 298.15 K | relative permittivity, 303.15 K
[1], x2 = 0 | 1.41807 | 1.41563 | 1.41321 | – | – | –
[1], x2 = 0.056 | 1.41916 | 1.41674 | 1.41434 | – | – | –
[1], x2 = 0.1018 | 1.41999 | 1.41761 | 1.41523 | – | – | –
[1], x2 = 0.1463 | 1.42077 | 1.4184 | 1.41604 | – | – | –
[1], x2 = 0.2047 | 1.42171 | 1.41937 | 1.41703 | – | – | –
[1], x2 = 0.3044 | 1.4231 | 1.4208 | 1.41853 | – | – | –
[1], x2 = 0.4059 | 1.42423 | 1.42197 | 1.41974 | – | – | –
[1], x2 = 0.5044 | 1.42503 | 1.4228 | 1.42062 | – | – | –
[1], x2 = 0.602 | 1.4255 | 1.42331 | 1.42116 | – | – | –
[1], x2 = 0.7029 | 1.42563 | 1.42351 | 1.42142 | – | – | –
[1], x2 = 0.7979 | 1.42545 | 1.42339 | 1.42136 | – | – | –
[1], x2 = 0.8534 | 1.42521 | 1.4232 | 1.4212 | – | – | –
[1], x2 = 0.8986 | 1.42496 | 1.42299 | 1.42103 | – | – | –
[1], x2 = 0.9472 | 1.42464 | 1.42271 | 1.42079 | – | – | –
[2], x2 = 0 | – | – | – | 3.963 | 3.903 | 3.848
[2], x2 = 0.0503 | – | – | – | 4.202 | 4.133 | 4.07
[2], x2 = 0.095 | – | – | – | 4.414 | 4.339 | 4.271
[2], x2 = 0.1606 | – | – | – | 4.731 | 4.644 | 4.567
[2], x2 = 0.2073 | – | – | – | 4.97 | 4.882 | 4.796
[2], x2 = 0.3067 | – | – | – | 5.497 | 5.392 | 5.291
[2], x2 = 0.4038 | – | – | – | 6.064 | 5.934 | 5.811
[2], x2 = 0.4991 | – | – | – | 6.671 | 6.508 | 6.358
[2], x2 = 0.6036 | – | – | – | 7.425 | 7.224 | 7.035
[2], x2 = 0.7001 | – | – | – | 8.239 | 7.981 | 7.746
[2], x2 = 0.8007 | – | – | – | 9.272 | 8.951 | 8.651
[2], x2 = 0.8524 | – | – | – | 9.877 | 9.521 | 9.177
[2], x2 = 0.8904 | – | – | – | 10.381 | 9.983 | 9.607
[2], x2 = 0.9402 | – | – | – | 11.091 | 10.642 | 10.222
